Results on 19 molecules are retold here after ChEMBL document CHEMBL1131649, “A novel series of N-(hexahydro-1,4-diazepin-6-yl) and N-(hexahydroazepin- 3-yl)benzamides with high affinity for 5-HT3 and dopamine D2 receptors” (Bioorg Med Chem Lett, 1998).

Holding throughout (type): cell membranes
Assay [1] deals with T1, Serotonin 3 (5-HT3) receptor (Rattus norvegicus, UniProt P35563+Q9JJ16).
T1 sequence (P35563 whole entry): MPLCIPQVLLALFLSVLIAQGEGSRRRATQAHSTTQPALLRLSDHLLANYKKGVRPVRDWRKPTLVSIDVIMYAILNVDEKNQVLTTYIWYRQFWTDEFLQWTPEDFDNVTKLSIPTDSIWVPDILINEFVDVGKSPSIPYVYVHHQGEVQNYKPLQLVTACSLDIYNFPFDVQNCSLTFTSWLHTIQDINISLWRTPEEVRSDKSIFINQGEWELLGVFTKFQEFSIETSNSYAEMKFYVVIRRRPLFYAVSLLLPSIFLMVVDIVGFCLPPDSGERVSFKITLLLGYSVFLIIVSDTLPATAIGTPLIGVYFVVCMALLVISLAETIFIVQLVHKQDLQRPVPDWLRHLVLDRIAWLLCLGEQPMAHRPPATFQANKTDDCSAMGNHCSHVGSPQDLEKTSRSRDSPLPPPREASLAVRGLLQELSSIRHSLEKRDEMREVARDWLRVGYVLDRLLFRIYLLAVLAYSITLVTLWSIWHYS
T1 sequence (Q9JJ16 whole entry): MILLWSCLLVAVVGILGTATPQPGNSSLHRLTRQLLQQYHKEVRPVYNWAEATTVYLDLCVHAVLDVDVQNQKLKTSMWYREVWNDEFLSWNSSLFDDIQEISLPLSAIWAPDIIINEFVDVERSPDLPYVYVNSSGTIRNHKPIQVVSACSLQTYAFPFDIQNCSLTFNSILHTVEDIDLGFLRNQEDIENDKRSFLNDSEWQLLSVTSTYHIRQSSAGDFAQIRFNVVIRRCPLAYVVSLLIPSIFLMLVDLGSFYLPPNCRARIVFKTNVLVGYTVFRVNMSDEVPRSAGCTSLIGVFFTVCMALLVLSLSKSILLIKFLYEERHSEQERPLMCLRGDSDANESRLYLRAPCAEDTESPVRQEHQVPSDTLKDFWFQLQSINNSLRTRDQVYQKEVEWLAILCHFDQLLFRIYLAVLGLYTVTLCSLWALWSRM
Kind of assay: Binding affinity against 5-hydroxytryptamine 3 receptor in rat cortical membrane using [3H]GR-65630 as radioligand.

Assay [2] has as its target T2, D(2) dopamine receptor (Rattus norvegicus, UniProt P61169). Kind of assay: Binding affinity against dopamine D2 receptor in rat brain synaptic membrane using [3H]-spiperone as radioligand.
The target of assay [3] is T2, D(2) dopamine receptor. Kind of assay: Compound was tested for binding affinity against Dopamine receptor D2 in rat brain synaptic membrane using [3H]-spiperone as radioligand.

SMILES strings stand for the structures. Where only a bound is given, the exact number is not on record here.

T2 sequence (P61169 whole entry): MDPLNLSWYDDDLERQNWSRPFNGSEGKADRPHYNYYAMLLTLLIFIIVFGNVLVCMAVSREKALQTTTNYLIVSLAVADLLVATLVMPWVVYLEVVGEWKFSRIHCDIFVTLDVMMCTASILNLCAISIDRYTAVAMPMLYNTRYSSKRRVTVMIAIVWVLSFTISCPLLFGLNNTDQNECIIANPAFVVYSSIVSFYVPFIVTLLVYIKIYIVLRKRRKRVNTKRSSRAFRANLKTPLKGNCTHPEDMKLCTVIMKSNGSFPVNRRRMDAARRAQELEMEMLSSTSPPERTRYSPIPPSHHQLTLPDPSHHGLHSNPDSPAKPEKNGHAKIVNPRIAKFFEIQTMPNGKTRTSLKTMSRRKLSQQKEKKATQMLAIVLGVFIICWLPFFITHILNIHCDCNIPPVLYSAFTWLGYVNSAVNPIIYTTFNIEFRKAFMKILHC

A word on the IC50: it is the concentration at which inhibition is half-maximal. In the case of `CCN1CCN(C)CC(NC(=O)c2cc(Cl)c(NC)cc2OC)C1` (stereo unspecified), the IC50 in assay [1] was determined as 4.8 nM; at D(2) dopamine receptor [2], 61 nM.
For `COc1cc(N)c(Cl)cc1C(=O)NC1CN(C)CCN(C)C1`, the results for the IC50 (in assay [1]; on D(2) dopamine receptor [3]) were 9.6 nM and over 1000 nM, respectively.
For `CCNc1cc(OC)c(C(=O)NC2CN(C)CCN(CC)C2)cc1Cl` (stereo unspecified), the IC50 in assay [1] is 1.9 nM; at D(2) dopamine receptor [2], 181 nM.
Regarding `CCN1CCN(C)C[C@@H](NC(=O)c2cc(Cl)c(N)cc2OC)C1`, the IC50 worked out at 12 nM in assay [1] and 87 nM on D(2) dopamine receptor [2].
Taken in the same sequence, the figures for `CCN1CCN(C)C[C@H](NC(=O)c2cc(Cl)c(NC)cc2OC)C1` were 1.5 nM and 320 nM.
On the same counts, the results for `CCN1CCCC[C@@H](NC(=O)c2cc(Cl)c(NC)cc2OC)C1` are 97 nM and 4.5 nM.
Consider `CCN1CCCC[C@@H](NC(=O)c2cc(Cl)c(N)cc2OC)C1`, for which the values for the IC50 (in assay [1]; on D(2) dopamine receptor [2]) were 134 nM and 19 nM, respectively.
On the same counts, the results for `CCN1CCN(C)C[C@H](NC(=O)c2cc(Cl)c(N)cc2OC)C1` are 7 nM and 517 nM.
With `CCN1CCCC[C@H](NC(=O)c2cc(Cl)c(NC)cc2OC)C1`, the IC50 in assay [1] is 4.5 nM; on D(2) dopamine receptor [2] it was 367 nM.
On to `CCN1CCCC[C@H](NC(=O)c2cc(Cl)c(N)cc2OC)C1`, for which the IC50 in assay [1] was 10 nM; at D(2) dopamine receptor [2], over 1000 nM.
On the same counts, the results for `CCNc1cc(OC)c(C(=O)NC2CCCCN(CC)C2)cc1Cl` (stereo unspecified) are 50 nM and 25 nM.
Taken in the same sequence, the figures for `CCCN1CCN(C)CC(NC(=O)c2cc(Cl)c(N)cc2OC)C1` (stereo unspecified) were 24 nM and 218 nM.
On the same counts, the results for `CCN1CCN(C)CC(NC(=O)c2cc(Cl)c(N)cc2OC)C1` (stereo unspecified) are 8.5 nM and 127 nM.
Turning to `CCN1CCCCC(NC(=O)c2cc(Cl)c(N)cc2OC)C1` (stereo unspecified), the half-inhibitory concentration (IC50) in assay [1] was determined as 33 nM; at D(2) dopamine receptor [2], 39 nM.
Consider `COc1cc(N)c(Cl)cc1C(=O)NC1CCCCN(C)C1` (stereo unspecified), for which the IC50 in assay [1] amounted to 36 nM.
As to `CCN1CCCCC(NC(=O)c2cc(Cl)c(NC)cc2OC)C1` (stereo unspecified), the IC50 in assay [1] was determined as 6.6 nM; on D(2) dopamine receptor [2] it was 11 nM.
On the same counts, the results for `COc1cc(N)c(Cl)cc1C(=O)NC1CCCCN(C(C)C)C1` (stereo unspecified) are 640 nM and 87 nM.
Taken in the same sequence, the figures for `CCCN1CCCCC(NC(=O)c2cc(Cl)c(N)cc2OC)C1` (stereo unspecified) were 37 nM and 57 nM.
`Cc1nccn1CC1CCc2c(c3ccccc3n2C)C1=O` (stereo unspecified) [ONDANSETRON] came in with an IC50 on D(2) dopamine receptor [2] of over 1000 nM.
